Assay results: patent US20240299345A1, “GINKGOLIDE B AND ITS DERIVATIVES FOR INHIBITING AND/OR REVERSING AGING” (CHINA MEDICAL UNIVERSITY, priority 2023, published 2024)

Key:
[1] = test system: 20-month-old aged female C57BL/6 mice; test: Aging-related skeletal muscle wasting in aged mice; assay type: in vivo, mouse
Protocol: RIPA buffer (#ab156034, Abcam) containing 1X protease/phosphatase inhibitor (#1861281, Thermo Fisher Scientific) was used to lyse samples. Protein content was measured by BCA Protein Assay Kit (#23225, Thermo Fisher Scientific). Samples were loaded and separated in polyacrylamide gels and then transferred to PVDF membranes (#IPVH00010, Merck Millipore, Massachusetts, USA). The membranes were incubated with 5% BSA at room temperature for one hour and then incubated with primary antibodies overnight at 4° C., and then incubated with HRP-conjugated secondary antibodies (#SA00001-1, #SA100002-1, Proteintech, Rosemont, IL, USA) for one hour at room temperature. Signals were detected by the chemiluminescent substrate (#34095, Thermo Fisher Scientific) and were acquired by the ChemiDoc MP imaging system (Bio-Rad, Hercules, CA, USA).
(§1) Serum was collected by cardiac puncture upon sacrifice.
(§2) RNAs were purified by using the TRIzol® (#15596018, Invitrogen) and chloroform method (#C7559, Sigma-Aldrich) and reversed transcribed using High-Capacity cDNA Reverse Transcription Kit (#4368814, Applied Biosystems, Foster City, CA, USA). The quantitative RT-PCR was conducted with universal probe system (Roche Life Science, Indianapolis, IN, USA) by using a QuantStudio™ 7 Flex Real-Time PCR System (Applied Biosystems) and was normalized by the expression of GAPDH.
To investigate whether GB improves healthspan, we administered GB to 20-month-old aged mice, equivalent to 70-80-year-old humans, which is more relevant to potential clinical applications than intervention starting from young adulthood (Wang, S., Lai, X., Deng, Y. & Song, Y. Correlation between mouse age and human age in anti-tumor research: Significance and method establishment. Life Sci 242, 117242, doi: 10.1016/j.lfs.2019.117242 (2020)). After GB administration for two months, we assessed the healthspan domains in terms of sarcopenia, physical activity, metabolic health, frailty index, and inflammation (FIG. 2A) according to the criteria in clinical practice (Shamliyan, T., Talley, K. M., Ramakrishnan, R. & Kane, R. L. Association of frailty with survival: a systematic literature review. Ageing Res Rev 12, 719-736, doi: 10.1016/j.arr.2012.03.001 (2013)). As expected, circulating osteocalcin levels were decreased in aged mice, while GB administration increased osteocalcin levels (FIG. 2B, p<0.0001) toward the levels of those in young mice. […] In line with muscle loss, aging led to a decreased in total protein content (FIG. 2H, p<0.0001) in skeletal muscle with upregulation of muscle atrophy markers, Fbxo32 and Trim63, at transcript (FIG. 2K, p<0.0001 and=0.0005, respectively) and protein levels. (FIG. 2L, p=0.0182 and 0.0003, respectively). […] GB reversed the infiltration of adipose-like tissues by aging (FIGS. 2D and 2G, p=0.0012). […] GB administration reversed aging-related muscle wasting (FIG. 2K).

[2] = test system: IL-6, IFN-γ; F4/80, CD86, CD206 cells; test: Tissue inflammatory cytokines (real-time PCR) and bone marrow macrophage IHC in aged mice; assay type: in vivo, mouse
Protocol: as §2

[3] = test system: 6-month-old female C57BL/6 mice; test: GB in 6-month-old adult mice (steady state): osteocalcin, myofiber CSA, grip strength; assay type: in vivo, mouse; settings: 6-month-old female mice
Protocol: (§3) Forelimb grip strength was measured by a grip strength meter (Muromachi Kikai Co., Tokyo, Japan). Each mouse performed five trials for force measurement, and the values were normalized to body and recorded. A rotarod test was carried out by using the rotarod treadmill (Singa Technology Corporation, Taoyuan City, Taiwan). The speed was adjusted to 4 rpm for 4 sec, 10 rpm for 10 sec, 20 rpm for 20 sec, and then 40 rpm until the mice fell. Mice were familiarized with the rotarod and balance beam by running 5 min for three consecutive days before the onset of experimentation. During the experiment, each mouse performed four trials, and the average time that each rodent was able to stay on top of the rotarod treadmill was recorded. The balance beam test was used to assess subtle motor coordination and balance. After initial training, mice were given four consecutive trials where they were required to cross 60 cm of a round beam (14 mm in diameter). The time for crossing the beam and the number of hind-feet slip were recorded. Hanging endurance was determined by Kondziella's inverted hanging screen test. Mice were putted at the center of grasped wire screen (bar thickness, 2 mm; mesh, 10 mm). After inverting the wire screen, the time of sustained limb tension on the screen were recorded. A fixed maximum hanging limit of 600 seconds was used. Each trial was repeated three times at 30-min interval, the mean values were recorded.
as §1
The maintenance of muscle mass and strength in adulthood reduces the risk of sarcopenia and improves healthspan. Osteocalcin is necessary to maintain muscle mass and health throughout the whole life, and loss of osteocalcin after the age of 30 leads to muscle loss. Since GB increased osteocalcin in aged osteoblasts, we postulated that oral GB administration could increase osteocalcin and skeletal muscle mass in mice. In a proof-of-principle experiment, we gave GB to 6-month-old female mice equivalent to 30-year-old women for two months (FIG. 1A). […] GB administration enlarged the CSA of the tibialis anterior and soleus muscles (FIGS. 1C to 1E, p=0.021 and <0.0001, respectively) and increased forelimb grip strength (FIG. IF, p=0.036).

[4] = test system: kidney, heart, spleen and liver in aged mice; test: Organ pathology, blood chemistry and tolerability after 2 months of GB in mice
Protocol: All animals were purchased from Laboratory Animal Services Centre, the Chinese University of Hong Kong, ad libitum fed the standard diet (#5V0f, LabDiet, St. Louis, MO, USA), and housed at specific-pathogen-free and humidity-controlled conditions under a 12 light: 12 dark photoperiod with temperature at 20-22° C. Animals were kept up to five per cage and were randomly assigned to control and experimental groups in all experiments. […] For the short-term experiment, 3-(young), 6-(adult) and 20-month-old (aged) female C57BL/6 mice were administered 12 mg/kg body weight GB (#G6910, Sigma-Aldrich, St. Louis, MO, USA) or vehicle daily by oral gavage for two months. […] GB was diluted to the appropriate concentration in 100 μL of sterile PBS (#10378016, Gibco, Waltham, MA, USA).
Tissue samples were harvested and embedded in paraffin or in OCT (#4583, Sakura Finetek USA, Torrance, CA, USA). For paraffin-embedded samples, 10 μm sections were deparaffinized by xylene and alcohol gradient treatment and were then hydrated by distilled water and processed for heat-induced antigen retrieval with antigen retrieval solution at 70° C. for 1.5 hours before staining. For OCT-embedded samples, 10 μm sections were hydrated by distilled water before staining. Hematoxylin and cosin staining (#MHS16 and #HT110116 Sigma-Aldrich), oil red O staining (#00625, Sigma-Aldrich), and Masson's trichrome staining (#HT15, Sigma-Aldrich) were used to assess the histology, lipid droplet, and collagen deposition. For immunohistochemical staining, antigen-retrieval samples were blocked with 5% bovine serum albumin (BSA) (#A9647, Sigma-Aldrich) for 1 hour at room temperature and incubated with primary antibodies overnight at 4° C., followed by a ready-to-use IHC/ICC Kit (#K405, BioVision, Milpitas, CA, USA) at room temperature. The samples were then suspended with double-distilled water and then stained with hematoxylin. For immunocytochemical staining, samples were blocked with 5% BSA (Sigma-Aldrich) for 1 hour at room temperature and incubated with primary antibodies overnight at 4° C., then washed with PBS for ten minutes, and then incubated with secondary antibody for 1 hour at room temperature, then washed with PBS three times for ten minutes.

healthy adult humans = settings: short-term pharmacological studies; cited from earlier work
[5] = test system: 20-month-old aged female C57BL/6 mice; test: Physical functional analysis (grip strength, rotarod, hanging, balance beam) in aged mice; assay type: in vivo, mouse
Protocol: as §3

[6] = test system: circulating inflammatory cytokines and chemokines; test: Serum 40-plex cytokine/chemokine panel in aged mice; assay type: in vivo, mouse; settings: of 40 detected, GB 2 months
Text: as §1

In the case of `CC1C(=O)OC2C(O)C34C5CC(C(C)(C)C)C36C(OC(=O)C6O)OC4(C(=O)O5)C12O` (stereo not drawn) [GB, Ginkgolide B], the circulating osteocalcin levels ([1]; aged (20-month-old) female mice, GB 12 mg/kg daily oral 2 months vs vehicle-aged, p<0.0001) is reported as “increased”, the skeletal muscle-to-body ratio ([1]; aged mice, GB 12 mg/kg daily oral 2 months vs vehicle-aged) is reported as “significantly increased” and the “infiltration of adipose-like tissues by aging” value ([1]; aged mice, GB 12 mg/kg daily oral 2 months, p=0.0012) is reported as “reversed”. For the same compound, the “myofiber CSA” value ([1]; aged mice, quadriceps, GB 12 mg/kg daily oral 2 months vs vehicle-aged, p=0.0032) was “significantly increased”, the “total protein content in aged skeletal muscle” value ([1]; gastrocnemius, aged mice, GB 12 mg/kg daily oral 2 months, p<0.0001) was “increased” and the “expression level of Trim63 (mRNA and protein)” value ([1]; gastrocnemius, aged mice, GB 2 months, p=0.0039 and 0.0003) was “significant downregulation”. For the same compound, the “expression level of Fbxo32 (mRNA and protein)” value ([1]; gastrocnemius, aged mice, GB 2 months, p=0.0078 and 0.0182) was “significant downregulation”, the “inflammatory cytokines IL-6 and IFN-γ in multiple tissues” value ([2]; GB 2 months, real-time PCR) was “downregulated” and the “CD86+ pro-inflammatory M1 macrophages” value ([2]; femur bone marrow IHC) was “decrease”. For the same compound, the “CD206+ anti-inflammatory M2 macrophages” value ([2]; femur bone marrow IHC) was “increased”, the “aging-related accumulation of bone marrow F4/80+ cells” value ([2]; femur bone marrow IHC) was “reversed” and the “CSA of the soleus muscle” value ([3]; GB 12 mg/kg daily oral 2 months vs vehicle, p<0.0001) was “enlarged”. The “CSA of the tibialis anterior muscle” value ([3]; GB 12 mg/kg daily oral 2 months vs vehicle, p=0.021) was “enlarged”, the forelimb grip strength ([3]; GB 12 mg/kg daily oral 2 months vs vehicle, p=0.036) was “increased” and the circulating osteocalcin ([3]; GB 12 mg/kg daily oral gavage 2 months vs vehicle, p=0.0114) was “significantly higher”. For the same compound, the “collagen deposition in multiple organs” value ([4]; Masson's trichrome, aged mice) was “reduced”, the severe acute toxicity ([4]; adult, aged or OVX mice, none of the treated mice dying during the two months of GB administration) was “did not find severe acute toxicity” and the “compensatory hypertrophy of the kidney and heart” value ([4]; aged mice, GB 2 months) was “decreased”. The “aging-related compensatory hypertrophy of glomerulus” value ([4]; aged mice, histopathology, p<0.0001) was “reduced”, the “aging-related compensatory hypertrophy of cardiomyocytes” value ([4]; aged mice, histopathology, p=0.0018) was “reduced” and the “reduction of aging-related hepatic lipid accumulation” value ([4]; aged mice, p<0.0001) was 3.8 fold. For the same compound, the “decrease in white pulp and white pulp/red pulp ratio in aged spleen” value ([4]; aged mice, p<0.0001 and p=0.0143) was “ameliorated”, the “number of hepatic microgranulomas” value ([4]; aged mice, p=0.0031) was “decreased” and the “tolerability of multiple administration” value (healthy adult humans) was “well tolerated”. The grip strength ([5]; GB 12 mg/kg daily oral 2 months vs vehicle-aged, p<0.01) was “higher”, the duration of hanging ([5]; GB 2 months vs vehicle-aged, p<0.0001) was “prolonged duration” and the “duration on the rotarod” value ([5]; GB 2 months vs vehicle-aged, p<0.05) was “prolonged duration”. For the same compound, the “balance beam: latency to cross” value ([5]; GB 2 months, p<0.001) was “decreased”, the “balance beam: number of foot slips” value ([5]; GB 2 months, p<0.001) was “reduced” and the “number of circulating proteins significantly altered” value [6] was 12.
